For assay [1], the target named is T1, HDAC1 enzyme (Homo sapiens, UniProt Q13547).
T1 construct: prepared by transducing full length HDAC1 and HDAC6 genes into Sf-9 insect cells; GST; purchased SignalChem; host or cells: Sf-9 insect cells
As to the kind of experiment: HDAC1 enzyme inhibitory assay (HDAC-Glo I/II Assay kit). Format: biochemical. As to conditions: 1 μM test compound; read-out: HDAC1 inhibitory rate (%) (1 μM). In short, it runs like this:
(§1)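 Relative activity was calculated from luminescence, with wells lacking enzyme defined as 100% inhibition. The enzymes were full-length HDAC1 or HDAC6 from Sf-9 cells, preincubated with test compound for 60 min before a 20-min substrate-developer reaction at room temperature.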

The target of assay [2] is T2, HDAC6 enzyme (Homo sapiens, UniProt Q9UBN7).
T2 construct: prepared by transducing full length HDAC1 and HDAC6 genes into Sf-9 insect cells; GST; purchased SignalChem; host or cells: Sf-9 insect cells
T2 sequence (Q9UBN7 1-1215): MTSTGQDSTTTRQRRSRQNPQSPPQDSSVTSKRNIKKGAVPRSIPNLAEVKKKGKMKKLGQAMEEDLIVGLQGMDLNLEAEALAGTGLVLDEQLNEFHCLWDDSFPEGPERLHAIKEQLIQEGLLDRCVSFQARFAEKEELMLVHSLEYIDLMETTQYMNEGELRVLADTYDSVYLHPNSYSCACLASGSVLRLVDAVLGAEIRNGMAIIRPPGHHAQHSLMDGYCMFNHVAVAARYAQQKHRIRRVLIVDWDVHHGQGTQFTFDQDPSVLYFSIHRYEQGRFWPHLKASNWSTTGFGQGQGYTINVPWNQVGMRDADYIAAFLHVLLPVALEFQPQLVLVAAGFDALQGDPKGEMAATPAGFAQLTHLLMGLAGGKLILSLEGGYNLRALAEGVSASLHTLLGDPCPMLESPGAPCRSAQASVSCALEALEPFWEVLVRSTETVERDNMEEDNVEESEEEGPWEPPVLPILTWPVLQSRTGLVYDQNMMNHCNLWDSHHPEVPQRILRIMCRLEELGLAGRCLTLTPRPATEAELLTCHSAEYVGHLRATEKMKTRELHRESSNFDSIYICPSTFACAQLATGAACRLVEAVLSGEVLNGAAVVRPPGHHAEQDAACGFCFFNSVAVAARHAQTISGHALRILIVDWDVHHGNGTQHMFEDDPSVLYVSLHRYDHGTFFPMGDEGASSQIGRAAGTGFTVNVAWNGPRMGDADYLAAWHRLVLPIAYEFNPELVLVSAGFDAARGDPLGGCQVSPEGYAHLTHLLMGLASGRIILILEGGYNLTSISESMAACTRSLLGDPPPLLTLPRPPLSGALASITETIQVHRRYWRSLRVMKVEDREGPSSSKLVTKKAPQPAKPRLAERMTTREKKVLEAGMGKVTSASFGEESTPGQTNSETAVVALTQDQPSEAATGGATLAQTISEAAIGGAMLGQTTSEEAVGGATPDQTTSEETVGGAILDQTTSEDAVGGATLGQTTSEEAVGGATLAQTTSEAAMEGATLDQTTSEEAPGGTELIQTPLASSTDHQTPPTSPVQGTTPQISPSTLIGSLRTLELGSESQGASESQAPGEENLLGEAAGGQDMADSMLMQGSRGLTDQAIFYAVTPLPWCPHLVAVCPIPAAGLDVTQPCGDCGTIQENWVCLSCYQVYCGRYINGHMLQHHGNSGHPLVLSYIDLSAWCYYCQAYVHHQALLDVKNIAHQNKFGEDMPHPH
The assay is described as follows: HDAC6 enzyme inhibitory assay (HDAC-Glo I/II Assay kit). Format: biochemical. As to conditions: 1 μM test compound; read-out: HDAC6 inhibitory rate (%) (1 μM). Summed up:
as §1

The text below walks through data of patent US10081624B2, “Heterocyclic compound” (Takeda Pharmaceutical Company Limited, priority 2014, dated 2018).

T1 sequence (Q13547 whole entry): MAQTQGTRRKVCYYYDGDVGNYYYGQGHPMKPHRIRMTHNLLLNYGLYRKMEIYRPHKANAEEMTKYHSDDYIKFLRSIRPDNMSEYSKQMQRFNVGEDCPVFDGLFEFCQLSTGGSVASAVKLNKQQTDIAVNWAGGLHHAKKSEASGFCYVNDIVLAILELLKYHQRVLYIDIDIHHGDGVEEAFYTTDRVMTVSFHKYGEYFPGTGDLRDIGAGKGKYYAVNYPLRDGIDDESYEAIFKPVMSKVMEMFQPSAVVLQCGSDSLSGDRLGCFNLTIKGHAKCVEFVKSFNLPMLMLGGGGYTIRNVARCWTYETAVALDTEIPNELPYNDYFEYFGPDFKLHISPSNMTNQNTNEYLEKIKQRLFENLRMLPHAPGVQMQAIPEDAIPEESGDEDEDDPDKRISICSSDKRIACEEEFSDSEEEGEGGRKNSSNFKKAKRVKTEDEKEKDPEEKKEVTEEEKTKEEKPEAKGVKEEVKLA

On to `O=C(NC[C@@H]1COCCN1C(=O)C1CCCCC1)c1ccc(-c2noc(C(F)(F)F)n2)s1` [Example 266, N-(((3R)-4-(cyclohexylcarbonyl)morpholin-3-yl)methyl)-5-(5-(trifluoromethyl)-1,2,4-oxadiazol-3-yl)thiophene-2-carboxamide], for which the inhibition at 1 µM in assay [1] came to 30%; in assay [2], 98%.
For the compound `COC(=O)c1cccc(C(=O)N2CCOC[C@@H]2CNC(=O)c2ccc(-c3noc(C(F)(F)F)n3)cc2)c1` [Example 268, methyl 3-(((3S)-3-(((4-(5-(trifluoromethyl)-1,2,4-oxadiazol-3-yl)benzoyl)amino)methyl)morpholin-4-yl)carbonyl)benzoate], the inhibition at 1 µM in assay [1] came to 15%; in assay [2], 96%.
For `O=C(O)c1cccc(C(=O)N2CCOC[C@@H]2CNC(=O)c2ccc(-c3noc(C(F)(F)F)n3)cc2)c1` [Example 269, 3-(((3S)-3-(((4-(5-(trifluoromethyl)-1,2,4-oxadiazol-3-yl)benzoyl)amino)methyl)morpholin-4-yl)carbonyl)benzoic acid], the inhibition at 1 µM turned out to be 7% in assay [1] and 89% in assay [2].
In the same order, the values of `CN1CCC[C@H]1C(=O)N1CCOC[C@@H]1CNC(=O)c1ccc(-c2noc(C(F)(F)F)n2)cc1` [Example 270, N-(((3S)-4-(1-methyl-L-prolyl)morpholin-3-yl)methyl)-4-(5-(trifluoromethyl)-1,2,4-oxadiazol-3-yl)benzamide] are -1% and 59%.
On to `O=C(NCCO)c1cccc(C(=O)N2CCOC[C@@H]2CNC(=O)c2ccc(-c3noc(C(F)(F)F)n3)cc2)c1` [Example 271, N-(2-hydroxyethyl)-3-(((3S)-3-(((4-(5-(trifluoromethyl)-1,2,4-oxadiazol-3-yl)benzoyl)amino)methyl)morpholin-4-yl)carbonyl)benzamide], for which the inhibition at 1 µM stood at 7% in assay [1] and 94% in assay [2].
As to `COC[C@H]1CCCN1C(=O)N1CCOC[C@@H]1CNC(=O)c1ccc(-c2noc(C(F)(F)F)n2)cc1` [Example 272, N-(((3S)-4-(((2R)-2-(methoxymethyl)pyrrolidin-1-yl)carbonyl)morpholin-3-yl)methyl)-4-(5-(trifluoromethyl)-1,2,4-oxadiazol-3-yl)benzamide], the results for the inhibition at 1 µM in assay [1] and in assay [2] were 5% and 99%, respectively.
In the same order, the values of `COC[C@@H]1CCCN1C(=O)N1CCOC[C@@H]1CNC(=O)c1ccc(-c2noc(C(F)(F)F)n2)cc1` [Example 273, N-(((3S)-4-(((2S)-2-(methoxymethyl)pyrrolidin-1-yl)carbonyl)morpholin-3-yl)methyl)-4-(5-(trifluoromethyl)-1,2,4-oxadiazol-3-yl)benzamide] are 3% and 87%.
`O=C(NC[C@H]1COCCN1C(=O)N1CC[C@H](O)C1)c1ccc(-c2noc(C(F)(F)F)n2)cc1` [Example 274, N-(((3S)-4-(((3S)-3-hydroxypyrrolidin-1-yl)carbonyl)morpholin-3-yl)methyl)-4-(5-(trifluoromethyl)-1,2,4-oxadiazol-3-yl)benzamide]: the inhibition at 1 µM came out at 3% in assay [1] and 94% in assay [2].
As for `O=C(NC[C@H]1COCCN1C(=O)N1CC[C@@H](O)C1)c1ccc(-c2noc(C(F)(F)F)n2)cc1` [Example 275, N-(((3S)-4-(((3R)-3-hydroxypyrrolidin-1-yl)carbonyl)morpholin-3-yl)methyl)-4-(5-(trifluoromethyl)-1,2,4-oxadiazol-3-yl)benzamide], the inhibition at 1 µM in assay [1] came out at 5%; in assay [2], 85%.
Take `O=C(NC[C@H]1COCCN1C(=O)N1CCCC(CO)C1)c1ccc(-c2noc(C(F)(F)F)n2)cc1` (stereo partly drawn) [Example 276, N-(((3S)-4-((3-(hydroxymethyl)piperidin-1-yl)carbonyl)morpholin-3-yl)methyl)-4-(5-(trifluoromethyl)-1,2,4-oxadiazol-3-yl)benzamide]: the inhibition at 1 µM in assay [1] is 9%; in assay [2] it was 89%.
In the same order, the values of `O=C(NC[C@H]1COCCN1C(=O)N1CCC(F)(F)CC1)c1ccc(-c2noc(C(F)(F)F)n2)cc1` [Example 277, N-(((3S)-4-((4,4-difluoropiperidin-1-yl)carbonyl)morpholin-3-yl)methyl)-4-(5-(trifluoromethyl)-1,2,4-oxadiazol-3-yl)benzamide] are 8% and 101%.
For `O=C(NC[C@H]1COCCN1C(=O)N1CCC(CO)CC1)c1ccc(-c2noc(C(F)(F)F)n2)cc1` [Example 278, N-(((3S)-4-((4-(hydroxymethyl)piperidin-1-yl)carbonyl)morpholin-3-yl)methyl)-4-(5-(trifluoromethyl)-1,2,4-oxadiazol-3-yl)benzamide], in that order: 6% and 90%.
As for `O=C(NC[C@H]1COCCN1C(=O)N1CCC(CCO)CC1)c1ccc(-c2noc(C(F)(F)F)n2)cc1` [Example 279, N-(((3S)-4-((4-(2-hydroxyethyl)piperidin-1-yl)carbonyl)morpholin-3-yl)methyl)-4-(5-(trifluoromethyl)-1,2,4-oxadiazol-3-yl)benzamide], the inhibition at 1 µM in assay [1] was determined as 10%; in assay [2], 90%.
Consider `O=C(NC[C@H]1COCCN1C(=O)N1CCCC2(COC2)C1)c1ccc(-c2noc(C(F)(F)F)n2)cc1` [Example 281, N-(((3S)-4-(2-oxa-6-azaspiro[3.5]non-6-ylcarbonyl)morpholin-3-yl)methyl)-4-(5-(trifluoromethyl)-1,2,4-oxadiazol-3-yl)benzamide], for which the inhibition at 1 µM was determined as 7% in assay [1] and 93% in assay [2].
In the same order, the values of `O=C(NC[C@H]1COCCN1C(=O)N1CCC2(CC1)COC2)c1ccc(-c2noc(C(F)(F)F)n2)cc1` [Example 282, N-(((3S)-4-(2-oxa-7-azaspiro[3.5]non-7-ylcarbonyl)morpholin-3-yl)methyl)-4-(5-(trifluoromethyl)-1,2,4-oxadiazol-3-yl)benzamide] are 5% and 83%.
For `NC(=O)[C@@H]1CCCN1C(=O)N1CCOC[C@@H]1CNC(=O)c1ccc(-c2noc(C(F)(F)F)n2)cc1` [Example 283, 1-(((3S)-3-(((4-(5-(trifluoromethyl)-1,2,4-oxadiazol-3-yl)benzoyl)amino)methyl)morpholin-4-yl)carbonyl)-L-prolinamide], in that order: -1% and 73%.
`N#C[C@H]1CCCN1C(=O)N1CCOC[C@@H]1CNC(=O)c1ccc(-c2noc(C(F)(F)F)n2)cc1` [Example 284, N-(((3S)-4-(((2R)-2-cyanopyrrolidin-1-yl)carbonyl)morpholin-3-yl)methyl)-4-(5-(trifluoromethyl)-1,2,4-oxadiazol-3-yl)benzamide]: the figures for the inhibition at 1 µM in assay [1] and in assay [2] were 1% and 95%, respectively.
As to `N#C[C@@H]1CCCN1C(=O)N1CCOC[C@@H]1CNC(=O)c1ccc(-c2noc(C(F)(F)F)n2)cc1` [Example 285, N-(((3S)-4-(((2S)-2-cyanopyrrolidin-1-yl)carbonyl)morpholin-3-yl)methyl)-4-(5-(trifluoromethyl)-1,2,4-oxadiazol-3-yl)benzamide], the inhibition at 1 µM is 3% in assay [1] and 83% in assay [2].
